Experimental data taken from ChEMBL document CHEMBL1201862, “PubChem BioAssay data set” (2004).
Activity calls are given as the source filed them.

Tests used:
[1] = molecular target: T1, High affinity choline transporter 1 (Homo sapiens, UniProt Q9GZV3); assay: human choline transporter potentiators, potency – cell-based, 10-point CRC, membrane potential dye, dose response (AID 602376); assay type: functional
T1 sequence (Q9GZV3 whole entry): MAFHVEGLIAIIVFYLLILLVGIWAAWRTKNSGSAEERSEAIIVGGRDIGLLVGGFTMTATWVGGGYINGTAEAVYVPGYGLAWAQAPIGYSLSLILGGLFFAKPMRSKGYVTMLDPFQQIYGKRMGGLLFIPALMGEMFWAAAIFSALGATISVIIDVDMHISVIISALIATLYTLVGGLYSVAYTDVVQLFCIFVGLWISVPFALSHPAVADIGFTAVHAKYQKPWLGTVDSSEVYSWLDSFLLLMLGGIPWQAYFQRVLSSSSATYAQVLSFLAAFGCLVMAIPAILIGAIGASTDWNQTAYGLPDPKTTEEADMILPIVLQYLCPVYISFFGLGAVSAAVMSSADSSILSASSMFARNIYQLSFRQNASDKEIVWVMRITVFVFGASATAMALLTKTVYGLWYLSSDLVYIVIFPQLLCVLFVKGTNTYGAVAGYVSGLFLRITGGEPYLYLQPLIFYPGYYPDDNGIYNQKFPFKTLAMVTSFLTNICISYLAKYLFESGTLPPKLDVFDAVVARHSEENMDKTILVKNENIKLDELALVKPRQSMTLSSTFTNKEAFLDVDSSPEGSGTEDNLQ

Aspartyl aminopeptidase = Aspartyl aminopeptidase (Plasmodium falciparum 3D7, UniProt Q8I2J3)
[2] = molecular target: Multidrug resistance protein CDR1 (Candida albicans, UniProt P43071); assay: inhibition of Nile Red efflux via Candida CDR1 – S. cerevisiae AD1-8u, singleplex, Cherry Pick1 hits, dose response (AID 588606); assay type: functional
Procathepsin L = Procathepsin L (Homo sapiens, UniProt P07711)
[3] = molecular target: Casein kinase I isoform alpha (Homo sapiens, UniProt P48729); assay type: functional
[4] = molecular target: Dual specificity tyrosine-phosphorylation-regulated kinase 1B (Homo sapiens, UniProt Q9Y463); assay: Navigating the Kinome. Panel member name: DYRK1B; assay type: functional
[5] = molecular target: Tyrosine-protein kinase receptor TYRO3 (Homo sapiens, UniProt Q06418); assay type: functional;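 further: TYRO3 value obtained as one member of a kinome-wide profiling panel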
[6] = molecular target: Mitogen-activated protein kinase kinase kinase kinase 4 (Homo sapiens, UniProt O95819); assay type: functional
[7] = molecular target: Dual specificity protein kinase CLK4 (Homo sapiens, UniProt Q9HAZ1); assay type: functional
[8] = molecular target: Serine/threonine-protein kinase pim-1 (Homo sapiens, UniProt P11309); assay type: functional
[9] = molecular target: Glycogen synthase kinase-3 beta (Homo sapiens, UniProt P49841); assay type: functional;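 further: value comes from a broad kinome profiling panel, with GSK3B as the panel member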
[10] = molecular target: Interleukin-1 receptor-associated kinase 4 (Homo sapiens, UniProt Q9NWZ3); assay type: functional
[11] = molecular target: Cell division cycle 7-related protein kinase (Homo sapiens, UniProt O00311); assay type: functional;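 further: value obtained from a kinome-wide kinase panel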
[12] = molecular target: Homeodomain-interacting protein kinase 2 (Homo sapiens, UniProt Q9H2X6); assay type: functional;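 further: measured within a kinome-wide kinase profiling panel, HIPK2 being one panel member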
[13] = molecular target: cAMP-dependent protein kinase catalytic subunit alpha (Homo sapiens, UniProt P17612); assay type: functional
[14] = molecular target: Cyclin-dependent kinase 2 (Homo sapiens, UniProt P24941); assay type: functional;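 further: CDK2 measured as one member of a broad kinome profiling panel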
[15] = molecular target: Protein kinase C zeta type (Homo sapiens, UniProt Q05513); assay type: functional;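 further: measured as one member of a broad kinase profiling panel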
[16] = molecular target: MAP/microtubule affinity-regulating kinase 3 (Homo sapiens, UniProt P27448); assay type: functional;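 further: MARK3 affinity measured as one member of a kinome panel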
Ephrin type-A receptor 2 = Ephrin type-A receptor 2 (Homo sapiens, UniProt P29317); assay type: functional;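 further: EPHA2 tested as one member of a kinome-wide kinase panel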
[17] = molecular target: 5'-AMP-activated protein kinase catalytic subunit alpha-1 (Homo sapiens, UniProt Q13131); assay type: functional
[18] = molecular target: Serine/threonine-protein kinase Chk1 (Homo sapiens, UniProt O14757); assay type: functional;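 further: measured as one member of a kinome-wide kinase profiling panel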
[19] = molecular target: Ribosomal protein S6 kinase alpha-3 (Homo sapiens, UniProt P51812); assay type: functional;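 further: measured within a kinome-wide profiling panel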
[20] = molecular target: Ribosomal protein S6 kinase beta-1 (Homo sapiens, UniProt P23443); assay type: functional;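 further: measured as one member of a kinome-wide profiling panel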
[21] = molecular target: Protein kinase C delta type (Homo sapiens, UniProt Q05655); assay type: functional
[22] = molecular target: Fibroblast growth factor receptor 1 (Homo sapiens, UniProt P11362); assay type: functional
[23] = molecular target: Serine/threonine-protein kinase Chk2 (Homo sapiens, UniProt O96017); assay type: functional;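 further: CHEK2 entry within a kinome-wide screening panel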
[24] = molecular target: Serine/threonine-protein kinase PLK1 (Homo sapiens, UniProt P53350); assay type: functional;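 further: PLK1 measured as one member of a kinome-wide profiling panel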
[25] = molecular target: Casein kinase II subunit alpha (Homo sapiens, UniProt P68400); assay type: functional
[26] = molecular target: Protein kinase C gamma type (Homo sapiens, UniProt P05129); assay type: functional
[27] = molecular target: RAC-gamma serine/threonine-protein kinase (Homo sapiens, UniProt Q9Y243); assay type: functional
[28] = molecular target: Serine/threonine-protein kinase MRCK alpha (Homo sapiens, UniProt Q5VT25); assay type: functional
[29] = molecular target: RAC-alpha serine/threonine-protein kinase (Homo sapiens, UniProt P31749); assay type: functional;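 further: AKT1 affinity measured as one member of a kinome-wide kinase profiling panel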
[30] = molecular target: Cyclin-dependent kinase 1 (Homo sapiens, UniProt P06493); assay type: functional;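 further: Kinome-wide panel profiling, with the target listed as panel member CDC2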
[31] = molecular target: MAP kinase-activated protein kinase 2 (Homo sapiens, UniProt P49137); assay type: functional;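 further: measured as one member of a kinome-wide kinase panel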
[32] = molecular target: Serine/threonine-protein kinase PLK3 (Homo sapiens, UniProt Q9H4B4); assay type: functional
Aurora kinase A = Aurora kinase A (Homo sapiens, UniProt O14965); assay type: functional;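 further: value from the Navigating the Kinome kinase panel profiling, panel entry STK6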
[33] = molecular target: Serine/threonine-protein kinase PAK 4 (Homo sapiens, UniProt O96013); assay type: functional;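 further: value obtained within a kinome profiling panel in which PAK4 was one of the panel members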
[34] = molecular target: Insulin-like growth factor 1 receptor (Homo sapiens, UniProt P08069); assay: Navigating the Kinome. Panel member name: IGF1R; assay type: functional
[35] = molecular target: Tyrosine-protein kinase ABL1 (Homo sapiens, UniProt P00519); assay type: functional
Activin receptor type-1 = Activin receptor type-1 (Homo sapiens, UniProt Q04771); assay: Navigating the Kinome. Panel member name: ACVR1; assay type: functional

Chain of Serine/threonine-protein kinase pim-1 (P11309 whole entry): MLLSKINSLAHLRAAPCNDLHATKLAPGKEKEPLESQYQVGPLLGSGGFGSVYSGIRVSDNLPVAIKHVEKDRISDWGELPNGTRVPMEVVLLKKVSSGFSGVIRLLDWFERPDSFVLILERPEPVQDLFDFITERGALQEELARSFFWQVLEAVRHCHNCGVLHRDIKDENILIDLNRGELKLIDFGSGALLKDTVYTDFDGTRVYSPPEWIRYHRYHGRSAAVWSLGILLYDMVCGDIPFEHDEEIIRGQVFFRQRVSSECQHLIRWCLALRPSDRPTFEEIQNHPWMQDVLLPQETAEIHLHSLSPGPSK
Chain of Glycogen synthase kinase-3 beta (P49841 whole entry): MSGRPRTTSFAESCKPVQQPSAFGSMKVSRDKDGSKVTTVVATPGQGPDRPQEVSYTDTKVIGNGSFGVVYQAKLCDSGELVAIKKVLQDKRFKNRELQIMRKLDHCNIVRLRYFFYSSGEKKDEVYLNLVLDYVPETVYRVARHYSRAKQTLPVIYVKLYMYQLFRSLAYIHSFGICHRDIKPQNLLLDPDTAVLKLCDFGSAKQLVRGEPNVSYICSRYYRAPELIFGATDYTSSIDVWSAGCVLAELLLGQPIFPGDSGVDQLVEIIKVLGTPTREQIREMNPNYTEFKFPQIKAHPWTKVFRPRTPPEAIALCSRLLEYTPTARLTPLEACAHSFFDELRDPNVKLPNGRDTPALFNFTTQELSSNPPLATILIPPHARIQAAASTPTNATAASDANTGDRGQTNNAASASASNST
Chain of Dual specificity tyrosine-phosphorylation-regulated kinase 1B (Q9Y463 whole entry): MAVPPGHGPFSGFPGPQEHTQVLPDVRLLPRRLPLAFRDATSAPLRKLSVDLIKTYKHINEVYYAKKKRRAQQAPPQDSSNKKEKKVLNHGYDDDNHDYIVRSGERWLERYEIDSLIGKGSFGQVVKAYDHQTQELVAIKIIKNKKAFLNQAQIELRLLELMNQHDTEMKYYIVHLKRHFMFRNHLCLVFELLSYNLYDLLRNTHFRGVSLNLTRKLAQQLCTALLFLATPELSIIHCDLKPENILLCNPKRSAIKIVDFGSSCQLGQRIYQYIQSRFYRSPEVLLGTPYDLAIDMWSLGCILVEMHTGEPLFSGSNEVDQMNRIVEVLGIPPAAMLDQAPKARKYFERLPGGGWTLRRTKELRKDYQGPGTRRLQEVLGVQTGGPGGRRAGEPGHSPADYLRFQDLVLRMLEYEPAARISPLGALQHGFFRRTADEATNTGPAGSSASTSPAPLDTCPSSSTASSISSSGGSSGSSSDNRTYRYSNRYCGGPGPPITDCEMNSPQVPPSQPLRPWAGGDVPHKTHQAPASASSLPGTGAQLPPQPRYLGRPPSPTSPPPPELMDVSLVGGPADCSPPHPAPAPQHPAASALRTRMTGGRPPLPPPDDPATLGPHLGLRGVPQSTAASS
Chain of RAC-gamma serine/threonine-protein kinase (Q9Y243 whole entry): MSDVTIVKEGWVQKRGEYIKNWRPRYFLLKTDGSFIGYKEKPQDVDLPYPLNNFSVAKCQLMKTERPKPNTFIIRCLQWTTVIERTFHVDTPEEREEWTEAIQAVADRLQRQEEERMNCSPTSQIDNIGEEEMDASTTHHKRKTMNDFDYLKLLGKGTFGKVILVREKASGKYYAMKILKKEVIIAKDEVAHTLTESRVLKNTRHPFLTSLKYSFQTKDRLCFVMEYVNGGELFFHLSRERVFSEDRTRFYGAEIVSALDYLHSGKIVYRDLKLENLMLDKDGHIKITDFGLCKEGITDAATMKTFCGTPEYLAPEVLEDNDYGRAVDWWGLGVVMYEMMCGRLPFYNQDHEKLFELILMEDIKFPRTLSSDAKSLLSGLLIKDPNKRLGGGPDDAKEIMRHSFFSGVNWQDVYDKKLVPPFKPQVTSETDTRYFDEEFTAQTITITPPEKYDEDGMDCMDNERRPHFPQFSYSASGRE
Chain of Serine/threonine-protein kinase PAK 4 (O96013 whole entry): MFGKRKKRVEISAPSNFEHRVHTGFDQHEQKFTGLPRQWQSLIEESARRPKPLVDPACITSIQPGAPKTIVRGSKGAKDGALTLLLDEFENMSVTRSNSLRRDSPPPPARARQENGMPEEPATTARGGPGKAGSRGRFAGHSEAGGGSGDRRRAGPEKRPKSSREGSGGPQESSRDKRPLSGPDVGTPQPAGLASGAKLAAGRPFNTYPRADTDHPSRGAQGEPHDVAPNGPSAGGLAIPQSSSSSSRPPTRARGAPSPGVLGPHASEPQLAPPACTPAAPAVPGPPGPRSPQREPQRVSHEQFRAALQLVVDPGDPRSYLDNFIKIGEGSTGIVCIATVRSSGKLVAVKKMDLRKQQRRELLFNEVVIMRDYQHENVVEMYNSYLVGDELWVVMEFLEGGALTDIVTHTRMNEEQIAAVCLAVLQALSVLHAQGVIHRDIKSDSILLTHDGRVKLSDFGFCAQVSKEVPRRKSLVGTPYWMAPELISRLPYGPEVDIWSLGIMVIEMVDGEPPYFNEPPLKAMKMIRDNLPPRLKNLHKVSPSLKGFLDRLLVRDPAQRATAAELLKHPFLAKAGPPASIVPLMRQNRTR
Chain of Protein kinase C zeta type (Q05513 whole entry): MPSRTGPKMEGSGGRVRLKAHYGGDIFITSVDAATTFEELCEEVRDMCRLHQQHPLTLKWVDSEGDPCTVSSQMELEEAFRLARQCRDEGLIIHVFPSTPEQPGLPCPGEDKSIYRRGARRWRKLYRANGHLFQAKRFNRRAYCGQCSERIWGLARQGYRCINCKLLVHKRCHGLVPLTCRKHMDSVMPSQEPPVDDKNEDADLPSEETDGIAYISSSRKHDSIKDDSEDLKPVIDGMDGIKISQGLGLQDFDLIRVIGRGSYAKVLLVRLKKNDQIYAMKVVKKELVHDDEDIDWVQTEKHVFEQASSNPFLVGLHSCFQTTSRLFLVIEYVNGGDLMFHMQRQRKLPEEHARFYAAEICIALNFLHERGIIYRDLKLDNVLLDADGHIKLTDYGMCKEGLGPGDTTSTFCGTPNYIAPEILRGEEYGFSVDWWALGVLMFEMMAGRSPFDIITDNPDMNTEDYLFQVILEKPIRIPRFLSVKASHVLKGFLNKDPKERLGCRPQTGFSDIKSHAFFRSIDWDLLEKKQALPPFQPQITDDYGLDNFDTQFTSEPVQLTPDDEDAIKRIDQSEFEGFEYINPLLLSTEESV
Chain of Protein kinase C delta type (Q05655 whole entry): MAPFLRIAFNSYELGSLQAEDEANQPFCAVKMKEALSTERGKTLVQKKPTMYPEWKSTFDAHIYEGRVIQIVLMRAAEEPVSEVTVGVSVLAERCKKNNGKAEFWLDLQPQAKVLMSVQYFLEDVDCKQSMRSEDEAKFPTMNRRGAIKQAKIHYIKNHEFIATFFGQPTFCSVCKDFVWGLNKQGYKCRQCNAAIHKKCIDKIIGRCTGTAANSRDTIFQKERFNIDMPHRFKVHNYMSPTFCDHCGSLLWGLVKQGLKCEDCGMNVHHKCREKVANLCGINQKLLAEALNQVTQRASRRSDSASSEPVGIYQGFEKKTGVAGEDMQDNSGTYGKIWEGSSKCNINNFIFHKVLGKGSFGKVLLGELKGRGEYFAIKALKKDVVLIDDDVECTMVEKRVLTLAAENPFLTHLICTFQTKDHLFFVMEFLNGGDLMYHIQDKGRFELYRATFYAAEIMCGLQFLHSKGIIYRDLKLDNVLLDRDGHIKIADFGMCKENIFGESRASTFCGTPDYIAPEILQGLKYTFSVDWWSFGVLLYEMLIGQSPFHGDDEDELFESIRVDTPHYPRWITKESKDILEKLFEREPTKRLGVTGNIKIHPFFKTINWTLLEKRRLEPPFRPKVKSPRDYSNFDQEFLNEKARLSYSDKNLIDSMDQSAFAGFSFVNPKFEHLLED
Chain of Homeodomain-interacting protein kinase 2 (Q9H2X6 whole entry): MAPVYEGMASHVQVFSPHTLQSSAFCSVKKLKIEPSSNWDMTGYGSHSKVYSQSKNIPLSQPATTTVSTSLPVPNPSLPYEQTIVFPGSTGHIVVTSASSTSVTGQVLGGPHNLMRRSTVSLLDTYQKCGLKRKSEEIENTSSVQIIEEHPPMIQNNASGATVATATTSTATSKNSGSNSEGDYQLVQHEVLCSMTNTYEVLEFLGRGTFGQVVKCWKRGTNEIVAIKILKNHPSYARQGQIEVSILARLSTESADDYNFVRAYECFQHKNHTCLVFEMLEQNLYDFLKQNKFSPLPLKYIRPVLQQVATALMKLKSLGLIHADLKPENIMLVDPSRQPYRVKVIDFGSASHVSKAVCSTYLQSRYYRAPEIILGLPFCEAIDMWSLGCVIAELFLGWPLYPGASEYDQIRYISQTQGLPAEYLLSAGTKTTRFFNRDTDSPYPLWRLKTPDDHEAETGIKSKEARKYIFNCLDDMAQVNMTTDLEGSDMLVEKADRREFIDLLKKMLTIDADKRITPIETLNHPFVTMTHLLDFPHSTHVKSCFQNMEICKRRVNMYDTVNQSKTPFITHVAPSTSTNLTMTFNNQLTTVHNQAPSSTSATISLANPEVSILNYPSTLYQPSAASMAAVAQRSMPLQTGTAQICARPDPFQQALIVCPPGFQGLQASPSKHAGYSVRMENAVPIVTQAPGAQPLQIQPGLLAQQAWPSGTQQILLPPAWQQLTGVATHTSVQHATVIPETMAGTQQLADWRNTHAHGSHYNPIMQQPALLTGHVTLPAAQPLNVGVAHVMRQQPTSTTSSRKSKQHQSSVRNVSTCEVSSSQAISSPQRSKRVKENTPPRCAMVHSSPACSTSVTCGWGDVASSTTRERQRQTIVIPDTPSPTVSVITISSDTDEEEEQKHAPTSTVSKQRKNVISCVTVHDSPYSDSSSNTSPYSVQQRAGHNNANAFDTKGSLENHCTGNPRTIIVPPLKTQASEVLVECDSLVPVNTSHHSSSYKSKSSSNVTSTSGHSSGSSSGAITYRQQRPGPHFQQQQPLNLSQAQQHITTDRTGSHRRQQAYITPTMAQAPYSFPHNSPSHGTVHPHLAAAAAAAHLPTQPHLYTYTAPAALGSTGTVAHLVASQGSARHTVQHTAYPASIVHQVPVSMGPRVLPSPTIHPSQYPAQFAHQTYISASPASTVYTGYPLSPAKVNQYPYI

Q: `COC(=O)CCC(=O)Nc1sc2c(c1C#N)CCCC2` was tested. Which EC50 [1] did it give?
A: The EC50 was 14 µM (active).

Q: With `O=C1NC(=S)NC(=O)C1=Cc1cc2ccccc2[nH]1` as the compound, how does the IC50 (Aspartyl aminopeptidase) read?
A: Its IC50 is 1.67 µM (active).

Q: What about the EC50 [2] of the same compound?
A: The EC50 was 6 µM (active).

Q: And the IC50 (Procathepsin L)?
A: Its IC50 is > 59.6 µM (not active).

Q: Which Ki [3] does the source give for `NC(=O)c1ccccc1-c1ncc[nH]1` here?
A: Its Ki is 50.1 µM (active).

Q: And the Ki [4]?
A: The Ki was 63.1 µM (active).

Q: And the Ki [5]?
A: The Ki was 79.4 µM (active).

Q: `O=c1cc(-c2cccc(F)c2)[nH]c2c(-c3ccc(F)cc3)cnn12` was tested. Which Ki [6] did it give?
A: Its Ki is > 10 µM (inactive).

Q: What about the Ki [7] of the same compound?
A: Its Ki is 0.158 µM (active).

Q: And the Ki [8]?
A: Its Ki is 0.126 µM (active).

Q: What about the Ki [9] of the same compound?
A: Its Ki is 2 µM (active).

Q: What about the Ki [10] of the same compound?
A: The Ki was > 10 µM (inactive).

Q: And the Ki [11]?
A: The Ki was 0.0631 µM (active).

Q: What about the Ki [12] of the same compound?
A: Its Ki is 0.501 µM (active).

Q: What about the Ki [13] of the same compound?
A: The Ki was > 7.94 µM (inactive).

Q: And the Ki [14]?
A: Its Ki is > 7.94 µM (inactive).

Q: For `O=C1NC(=O)C(Nc2ccccc2)=C1Cl`, which Ki [15] is on record?
A: Its Ki is > 20 µM (inactive).

Q: What about the Ki [16] of the same compound?
A: Its Ki is > 15.8 µM (inactive).

Q: What about the Ki (Ephrin type-A receptor 2) of the same compound?
A: The Ki was > 20 µM (inactive).

Q: And the Ki [17]?
A: Its Ki is > 25.1 µM (inactive).

Q: What about the Ki [18] of the same compound?
A: Its Ki is 12.6 µM (active).

Q: And the Ki [19]?
A: The Ki was > 20 µM (inactive).

Q: And the Ki [8]?
A: The Ki was 15.8 µM (active).

Q: And the Ki [20]?
A: The Ki was > 15.8 µM (inactive).

Q: And the Ki [21]?
A: The Ki was > 20 µM (inactive).

Q: What about the Ki [22] of the same compound?
A: The Ki was > 12.6 µM (inactive).

Q: And the Ki [23]?
A: Its Ki is > 25.1 µM (inactive).

Q: What about the Ki [9] of the same compound?
A: Its Ki is 1 µM (active).

Q: And the Ki [24]?
A: The Ki was > 20 µM (inactive).

Q: And the Ki [25]?
A: The Ki was > 15.8 µM (inactive).

Q: What about the Ki [26] of the same compound?
A: Its Ki is > 20 µM (inactive).

Q: What about the Ki [13] of the same compound?
A: The Ki was > 20 µM (inactive).

Q: What about the Ki [14] of the same compound?
A: Its Ki is > 20 µM (inactive).

Q: What about the Ki [27] of the same compound?
A: Its Ki is > 25.1 µM (inactive).

Q: And the Ki [28]?
A: Its Ki is > 25.1 µM (inactive).

Q: What about the Ki [29] of the same compound?
A: Its Ki is > 20 µM (inactive).

Q: And the Ki [30]?
A: The Ki was > 20 µM (inactive).

Q: What about the Ki [31] of the same compound?
A: Its Ki is > 20 µM (inactive).

Q: What about the Ki [32] of the same compound?
A: Its Ki is > 20 µM (inactive).

Q: And the Ki (Aurora kinase A)?
A: The Ki was 15.8 µM (active).

Q: What about the Ki [33] of the same compound?
A: The Ki was > 12.6 µM (inactive).

Q: What does the source list for `CC(C)(C)c1nc2c3ccc(F)cc3c3c(=O)[nH]ccc3c2[nH]1`?
A: Ki [4]: > 2.51 µM (inactive); Ki [34]: > 2.51 µM (inactive); Ki [35]: > 2.51 µM (inactive); Ki (Activin receptor type-1): > 3.98 µM (inactive)
